Results taken from PubChem BioAssay AID1224914.

Molecular target: Serine/threonine-protein kinase PAK 2 (Homo sapiens) (UniProt Q13177)
Assay: PubChem AID 1224914
Settings: PAK2 binding assay

Serine/threonine-protein kinase PAK 2 (Homo sapiens), sequence (Q13177 whole entry, looked up): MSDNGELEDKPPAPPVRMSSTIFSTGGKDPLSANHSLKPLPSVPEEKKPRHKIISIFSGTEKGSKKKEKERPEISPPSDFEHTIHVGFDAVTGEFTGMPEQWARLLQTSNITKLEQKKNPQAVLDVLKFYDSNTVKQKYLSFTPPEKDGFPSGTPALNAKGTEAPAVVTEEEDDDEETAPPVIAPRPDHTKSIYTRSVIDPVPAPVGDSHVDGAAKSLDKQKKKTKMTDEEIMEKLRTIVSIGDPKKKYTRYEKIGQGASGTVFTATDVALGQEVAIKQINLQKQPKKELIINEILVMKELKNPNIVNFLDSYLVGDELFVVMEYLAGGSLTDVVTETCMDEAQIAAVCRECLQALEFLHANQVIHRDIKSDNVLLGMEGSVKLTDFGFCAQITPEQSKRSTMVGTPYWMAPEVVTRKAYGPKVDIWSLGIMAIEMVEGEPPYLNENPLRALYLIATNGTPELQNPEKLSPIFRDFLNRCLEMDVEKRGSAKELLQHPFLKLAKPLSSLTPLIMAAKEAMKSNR

Kd: 400 nM
SMILES: CC(C)NC(=O)N1CC[C@H](N=C2Nc3cc(F)ccc3N(CC(F)F)c3ccc(Cl)cc32)C1
